Experiments:
Assay in all cases: relative viability (nuclei count vs DMSO), 5 days (fraction); higher = more cells survive
Calu-6 = system: Calu-6
How it was run: (§1)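 Five library-drug doses in √10 steps were combined with a fixed anchor-drug dose, or a single drug was given alone, by pin tool to lung cancer cell lines in 1536-well plates the day after seeding. Nuclei were stained and counted after 5 days. Relative viability is the nuclei count in treated wells over that in vehicle wells, taken as the median of duplicate plates.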

NCI-H1437 = system: NCI-H1437
How it was run: as §1

NCI-H1299 = system: NCI-H1299
How it was run: as §1

NCI-H596 = system: NCI-H596
How it was run: as §1

IA-LM = system: IA-LM
How it was run: as §1

NCI-H1703 = system: NCI-H1703
How it was run: as §1

A549 = system: A549
How it was run: as §1

LCLC-97TM1 = system: LCLC-97TM1
How it was run: as §1

EBC-1 = system: EBC-1
How it was run: as §1

NCI-H1355 = system: NCI-H1355
How it was run: as §1

Compound: Cc1csc(=NC2CCCCC2)n1/N=C/c1ccc(O)c(O)c1O [MIM1] + CS(=O)(=O)N1CCN(Cc2cc3nc(-c4cccc5[nH]ncc45)nc(N4CCOCC4)c3s2)CC1 [Pictilisib] (partner 1 µM)
- relative viability (Calu-6; first compound 0.2 µM): 0.909
- relative viability (Calu-6; first compound 0.6325 µM): 0.892
- relative viability (Calu-6; first compound 2 µM): 0.942
- relative viability (Calu-6; first compound 6.325 µM): 0.499
- relative viability (Calu-6; first compound 20 µM): 0.196
- relative viability (NCI-H1437; first compound 0.2 µM): 0.482
- relative viability (NCI-H1437; first compound 0.6325 µM): 0.382
- relative viability (NCI-H1437; first compound 2 µM): 0.516
- relative viability (NCI-H1437; first compound 6.325 µM): 0.269
- relative viability (NCI-H1437; first compound 20 µM): 0.128
- relative viability (NCI-H1299; first compound 0.2 µM): 0.726
- relative viability (NCI-H1299; first compound 0.6325 µM): 0.791
- relative viability (NCI-H1299; first compound 2 µM): 0.765
- relative viability (NCI-H1299; first compound 6.325 µM): 0.535
- relative viability (NCI-H1299; first compound 20 µM): 0.354
- relative viability (NCI-H596; first compound 0.2 µM): 0.419
- relative viability (NCI-H596; first compound 0.6325 µM): 0.457
- relative viability (NCI-H596; first compound 2 µM): 0.406
- relative viability (NCI-H596; first compound 6.325 µM): 0.352
- relative viability (NCI-H596; first compound 20 µM): 0.402
- relative viability (IA-LM; first compound 0.2 µM): 0.36
- relative viability (IA-LM; first compound 0.6325 µM): 0.328
- relative viability (IA-LM; first compound 2 µM): 0.261
- relative viability (IA-LM; first compound 6.325 µM): 0.18
- relative viability (IA-LM; first compound 20 µM): 0.0832
- relative viability (NCI-H1703; first compound 0.2 µM): 0.219
- relative viability (NCI-H1703; first compound 0.6325 µM): 0.304
- relative viability (NCI-H1703; first compound 2 µM): 0.286
- relative viability (NCI-H1703; first compound 6.325 µM): 0.177
- relative viability (NCI-H1703; first compound 20 µM): 0.182
- relative viability (A549; first compound 0.2 µM): 0.508
- relative viability (A549; first compound 0.6325 µM): 0.565
- relative viability (A549; first compound 2 µM): 0.636
- relative viability (A549; first compound 6.325 µM): 0.15
- relative viability (A549; first compound 20 µM): 0.0858
- relative viability (LCLC-97TM1; first compound 0.2 µM): 0.22
- relative viability (LCLC-97TM1; first compound 0.6325 µM): 0.178
- relative viability (LCLC-97TM1; first compound 2 µM): 0.228
- relative viability (LCLC-97TM1; first compound 6.325 µM): 0.18
- relative viability (LCLC-97TM1; first compound 20 µM): 0.108
- relative viability (EBC-1; first compound 0.2 µM): 0.352
- relative viability (EBC-1; first compound 0.6325 µM): 0.384
- relative viability (EBC-1; first compound 2 µM): 0.355
- relative viability (EBC-1; first compound 6.325 µM): 0.253
- relative viability (EBC-1; first compound 20 µM): 0.191
- relative viability (NCI-H1355; first compound 0.2 µM): 0.402
- relative viability (NCI-H1355; first compound 0.6325 µM): 0.392
- relative viability (NCI-H1355; first compound 2 µM): 0.435
- relative viability (NCI-H1355; first compound 6.325 µM): 0.376
- relative viability (NCI-H1355; first compound 20 µM): 0.234

Compound: CN1CCN(CCOc2cc(OC3CCOCC3)c3c(Nc4c(Cl)ccc5c4OCO5)ncnc3c2)CC1 [Saracatinib] + C[C@@H](Oc1cc(-c2cnn(C3CCNCC3)c2)cnc1N)c1c(Cl)ccc(F)c1Cl [Crizotinib] (partner 1 µM)
- relative viability (Calu-6; first compound 0.02 µM): 0.769
- relative viability (Calu-6; first compound 0.2 µM): 0.594
- relative viability (Calu-6; first compound 0.6325 µM): 0.662
- relative viability (Calu-6; first compound 2 µM): 0.526
- relative viability (NCI-H1437; first compound 0.02 µM): 0.912
- relative viability (NCI-H1437; first compound 0.2 µM): 0.866
- relative viability (NCI-H1437; first compound 0.6325 µM): 0.865
- relative viability (NCI-H1437; first compound 2 µM): 0.943
- relative viability (NCI-H1299; first compound 0.02 µM): 0.942
- relative viability (NCI-H1299; first compound 0.2 µM): 0.948
- relative viability (NCI-H1299; first compound 0.6325 µM): 0.985
- relative viability (NCI-H1299; first compound 2 µM): 0.781
- relative viability (NCI-H596; first compound 0.02 µM): 0.727
- relative viability (NCI-H596; first compound 0.2 µM): 0.775
- relative viability (NCI-H596; first compound 0.6325 µM): 0.981
- relative viability (NCI-H596; first compound 2 µM): 0.626
- relative viability (IA-LM; first compound 0.02 µM): 1.07
- relative viability (IA-LM; first compound 0.2 µM): 1.08
- relative viability (IA-LM; first compound 0.6325 µM): 1.24
- relative viability (IA-LM; first compound 2 µM): 0.738
- relative viability (NCI-H1703; first compound 0.02 µM): 0.553
- relative viability (NCI-H1703; first compound 0.2 µM): 0.633
- relative viability (NCI-H1703; first compound 0.6325 µM): 0.23
- relative viability (NCI-H1703; first compound 2 µM): 0.0951
- relative viability (A549; first compound 0.02 µM): 0.74
- relative viability (A549; first compound 0.2 µM): 0.738
- relative viability (A549; first compound 0.6325 µM): 0.649
- relative viability (A549; first compound 2 µM): 0.549
- relative viability (LCLC-97TM1; first compound 0.02 µM): 0.416
- relative viability (LCLC-97TM1; first compound 0.2 µM): 0.268
- relative viability (LCLC-97TM1; first compound 0.6325 µM): 0.457
- relative viability (LCLC-97TM1; first compound 2 µM): 0.316
- relative viability (EBC-1; first compound 0.02 µM): 0.174
- relative viability (EBC-1; first compound 0.2 µM): 0.198
- relative viability (EBC-1; first compound 0.6325 µM): 0.188
- relative viability (EBC-1; first compound 2 µM): 0.181
- relative viability (NCI-H1355; first compound 0.02 µM): 1.06
- relative viability (NCI-H1355; first compound 0.2 µM): 1.13
- relative viability (NCI-H1355; first compound 0.6325 µM): 1.08
- relative viability (NCI-H1355; first compound 2 µM): 0.925

— the supplement of paper PMC10307832
